In this assay the target is T1, LRRK2 (Homo sapiens, UniProt Q5S007, G2019S).
T1 construct: purchased Invitrogen PV4882
T1 sequence (Q5S007 whole entry G2019S): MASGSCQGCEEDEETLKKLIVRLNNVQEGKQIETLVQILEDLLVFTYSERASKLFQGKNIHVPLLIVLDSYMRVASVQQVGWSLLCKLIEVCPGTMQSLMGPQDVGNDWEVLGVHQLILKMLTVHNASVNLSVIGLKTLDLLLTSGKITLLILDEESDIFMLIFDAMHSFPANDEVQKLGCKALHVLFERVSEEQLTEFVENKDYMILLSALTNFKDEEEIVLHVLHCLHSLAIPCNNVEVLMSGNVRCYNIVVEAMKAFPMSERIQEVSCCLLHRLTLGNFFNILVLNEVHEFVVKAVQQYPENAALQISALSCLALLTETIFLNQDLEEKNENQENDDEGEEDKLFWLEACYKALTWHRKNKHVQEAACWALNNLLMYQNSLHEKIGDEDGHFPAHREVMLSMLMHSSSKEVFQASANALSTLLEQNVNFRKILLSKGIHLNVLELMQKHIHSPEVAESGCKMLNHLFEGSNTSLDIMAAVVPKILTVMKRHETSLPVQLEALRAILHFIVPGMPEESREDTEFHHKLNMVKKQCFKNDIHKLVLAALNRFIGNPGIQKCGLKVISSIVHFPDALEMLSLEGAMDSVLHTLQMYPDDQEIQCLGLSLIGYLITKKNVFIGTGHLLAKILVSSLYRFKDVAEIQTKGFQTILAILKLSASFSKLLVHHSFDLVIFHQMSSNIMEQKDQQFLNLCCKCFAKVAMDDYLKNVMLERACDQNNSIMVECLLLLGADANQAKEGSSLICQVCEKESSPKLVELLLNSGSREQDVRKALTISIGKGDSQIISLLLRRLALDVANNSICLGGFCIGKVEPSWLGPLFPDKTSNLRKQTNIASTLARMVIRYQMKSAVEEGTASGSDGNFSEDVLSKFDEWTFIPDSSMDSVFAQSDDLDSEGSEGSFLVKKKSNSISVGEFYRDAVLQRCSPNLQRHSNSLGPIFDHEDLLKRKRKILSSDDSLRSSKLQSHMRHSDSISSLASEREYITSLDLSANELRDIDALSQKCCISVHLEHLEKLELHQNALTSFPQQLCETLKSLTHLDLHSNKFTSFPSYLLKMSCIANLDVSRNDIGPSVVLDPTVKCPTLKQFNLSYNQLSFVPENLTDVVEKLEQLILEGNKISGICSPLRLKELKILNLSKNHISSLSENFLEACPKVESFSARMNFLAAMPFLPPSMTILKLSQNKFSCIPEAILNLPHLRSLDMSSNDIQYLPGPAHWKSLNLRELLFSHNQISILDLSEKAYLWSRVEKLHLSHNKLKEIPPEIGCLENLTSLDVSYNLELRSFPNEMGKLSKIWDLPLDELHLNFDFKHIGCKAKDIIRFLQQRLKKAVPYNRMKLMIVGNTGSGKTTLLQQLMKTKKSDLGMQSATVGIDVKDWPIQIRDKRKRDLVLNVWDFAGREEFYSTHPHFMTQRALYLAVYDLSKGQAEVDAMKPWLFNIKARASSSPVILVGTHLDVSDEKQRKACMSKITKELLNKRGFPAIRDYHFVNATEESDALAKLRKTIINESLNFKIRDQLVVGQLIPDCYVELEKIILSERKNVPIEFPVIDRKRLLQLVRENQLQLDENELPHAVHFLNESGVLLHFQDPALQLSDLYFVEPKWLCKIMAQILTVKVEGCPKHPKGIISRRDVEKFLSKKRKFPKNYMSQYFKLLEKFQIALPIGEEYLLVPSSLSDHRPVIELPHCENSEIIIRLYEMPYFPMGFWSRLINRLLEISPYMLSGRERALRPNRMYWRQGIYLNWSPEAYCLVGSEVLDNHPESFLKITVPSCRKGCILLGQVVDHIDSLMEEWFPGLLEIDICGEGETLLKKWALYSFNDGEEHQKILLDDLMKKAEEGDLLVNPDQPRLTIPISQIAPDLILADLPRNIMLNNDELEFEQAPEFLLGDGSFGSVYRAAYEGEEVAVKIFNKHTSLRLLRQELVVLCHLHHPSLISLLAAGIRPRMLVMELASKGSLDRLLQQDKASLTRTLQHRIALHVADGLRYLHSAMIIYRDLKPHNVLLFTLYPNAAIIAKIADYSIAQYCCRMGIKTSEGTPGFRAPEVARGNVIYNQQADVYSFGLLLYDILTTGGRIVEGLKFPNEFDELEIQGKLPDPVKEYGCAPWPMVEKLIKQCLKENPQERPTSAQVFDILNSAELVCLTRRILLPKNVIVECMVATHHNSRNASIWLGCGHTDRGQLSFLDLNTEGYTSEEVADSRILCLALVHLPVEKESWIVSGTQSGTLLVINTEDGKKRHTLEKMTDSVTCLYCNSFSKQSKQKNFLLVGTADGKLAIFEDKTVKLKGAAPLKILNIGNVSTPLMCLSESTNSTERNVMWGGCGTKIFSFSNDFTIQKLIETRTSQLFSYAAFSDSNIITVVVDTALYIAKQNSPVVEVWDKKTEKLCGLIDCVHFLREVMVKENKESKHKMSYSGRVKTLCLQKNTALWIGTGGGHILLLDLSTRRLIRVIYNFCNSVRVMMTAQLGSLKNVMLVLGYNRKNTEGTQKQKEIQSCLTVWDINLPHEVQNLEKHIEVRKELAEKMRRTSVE
Put plainly: In Vitro LRRK2 LabChip Assay (LRRK2 Ki). The class given is biochemical. The note with it: Table 5 compounds (formula I).
Consider `COc1cc(C(=O)N2CC[C@H](F)C2)ccc1Nc1ncc(C#N)c(NC2CC2)n1` [Compound 96, 4-Cyclopropylamino-2-[4-((S)-3-fluoro-pyrrolidine-1-carbonyl)-2-methoxy-phenylamino]-pyrimidine-5-carbonitrile], for which the inhibition constant Ki (as a rule, the equilibrium dissociation constant of an inhibitor or competing ligand from its target) stood at 3.13 nM.
As for `CCNc1nc(Nc2cc(C)c(C(=O)N3CC[C@H](F)C3)cc2OC)ncc1C#N` [Compound 97, 4-Ethylamino-2-[4-((S)-3-fluoro-pyrrolidine-1-carbonyl)-2-methoxy-5-methyl-phenylamino]-pyrimidine-5-carbonitrile], the figure is 1.21 nM; as for `CCNc1nc(Nc2ccc(C(=O)N3CC[C@H](F)C3)cc2F)ncc1C#N` [Compound 98, 4-Ethylamino-2-[2-fluoro-4-((S)-3-fluoro-pyrrolidine-1-carbonyl)-phenylamino]-pyrimidine-5-carbonitrile], 17.5 nM; as for `CNc1nc(Nc2cc(C)c(C(=O)N3CCOCC3)cc2OC(C)C)ncc1C(F)(F)F` [Compound 99, [5-Isopropoxy-2-methyl-4-(4-methylamino-5-trifluoromethyl-pyrimidin-2-ylamino)-phenyl]-morpholin-4-yl-methanone], 3.66 nM.
As to `CCOc1cc(C(=O)N2CCOCC2)c(C)cc1Nc1ncc(C(F)(F)F)c(NC)n1` [Compound 100, [5-Ethoxy-2-methyl-4-(4-methylamino-5-trifluoromethyl-pyrimidin-2-ylamino)-phenyl]-morpholin-4-yl-methanone], the Ki was determined as 1.05 nM.
The compound `CNc1nc(Nc2cc(C)c(C(=O)N3CCCC3)cc2OCF)ncc1C(F)(F)F` [Compound 101, [5-Fluoromethoxy-2-methyl-4-(4-methylamino-5-trifluoromethyl-pyrimidin-2-ylamino)-phenyl]-pyrrolidin-1-yl-methanone] gave an inhibition constant (Ki) of 0.685 nM.
For `O=C(c1cc(Cl)c(Nc2ncc(C(F)(F)F)c(NC3CC3)n2)cc1OCF)N1CCOCC1` [Compound 102, [5-Chloro-4-(4-cyclopropylamino-5-trifluoromethyl-pyrimidin-2-ylamino)-2-fluoromethoxy-phenyl]-morpholin-4-yl-methanone] the value was 708 nM; for `CCNc1nc(Nc2cc(C)c(C(=O)N3CCOCC3)cc2F)ncc1C(F)(F)F` [Compound 103, [4-(4-Ethylamino-5-trifluoromethyl-pyrimidin-2-ylamino)-5-fluoro-2-methyl-phenyl]-morpholin-4-yl-methanone], 1.23 nM.
As for `[2H]C1([2H])OC([2H])([2H])C([2H])([2H])N(C(=O)c2cc(OC)c(Nc3ncc(C(F)(F)F)c(NC)n3)cc2C)C1([2H])[2H]` [Compound 104, (5-methoxy-2-methyl-4-(4-(methylamino)-5-(trifluoromethyl)pyrimidin-2-ylamino)phenyl)(perdeuteromorpholino)methanone], the figure is 0.342 nM; as for `CCNc1nc(Nc2cc(C)c(C(=O)NCC(C)(C)O)cc2OC)ncc1C(F)(F)F` [Compound 105, 4-(4-Ethylamino-5-trifluoromethyl-pyrimidin-2-ylamino)-N-(2-hydroxy-2-methyl-propyl)-5-methoxy-2-methyl-benzamide], 0.31 nM; as for `CCNc1nc(Nc2cc(F)c(C(=O)NC(C)(C)CO)cc2OC)ncc1C(F)(F)F` [Compound 106, 4-(4-Ethylamino-5-trifluoromethyl-pyrimidin-2-ylamino)-2-fluoro-N-(2-hydroxy-1,1-dimethyl-ethyl)-5-methoxy-benzamide], 0.406 nM.
As for `CCNc1nc(Nc2cc(C)c(C(=O)N3CC[C@H](F)C3)cc2Cl)ncc1C#N` [Compound 107, 2-[2-Chloro-4-((S)-3-fluoro-pyrrolidine-1-carbonyl)-5-methyl-phenylamino]-4-ethylamino-pyrimidine-5-carbonitrile], the Ki came to 9.12 nM.
As for `CCNc1nc(Nc2ccc(C(=O)N3CC[C@H](F)C3)cc2Cl)ncc1C#N` [Compound 108, 2-[2-Chloro-4-((S)-3-fluoro-pyrrolidine-1-carbonyl)-phenylamino]-4-ethylamino-pyrimidine-5-carbonitrile], the figure is 28.9 nM; as for `CNc1nc(Nc2cc(C)c(C(=O)N3CCOCC3)cc2OCC2CC2)ncc1C(F)(F)F` [Compound 109, [5-Cyclopropylmethoxy-2-methyl-4-(4-methylamino-5-trifluoromethyl-pyrimidin-2-ylamino)-phenyl]-morpholin-4-yl-methanone], 1.38 nM; as for `CNc1nc(Nc2cc(OC)c(C(=O)N3CCCCC3)cc2OCF)ncc1C(F)(F)F` [Compound 110, [5-Fluoromethoxy-2-methoxy-4-(4-methylamino-5-trifluoromethyl-pyrimidin-2-ylamino)-phenyl]-piperidin-1-yl-methanone], 1.64 nM.
For the compound `CCNc1nc(Nc2cc(OCF)c(C(=O)N3CCCC3)cc2Cl)ncc1C(F)(F)F` [Compound 111, [5-Chloro-4-(4-ethylamino-5-trifluoromethyl-pyrimidin-2-ylamino)-2-fluoromethoxy-phenyl]-pyrrolidin-1-yl-methanone], affinity was put at a Ki of 1.68 nM.
As for `COc1cc(Nc2ncc(C(F)(F)F)c(NC3CCC3)n2)c(F)cc1C(=O)N1CCOCC1` [Compound 112, [4-(4-Cyclobutylamino-5-trifluoromethyl-pyrimidin-2-ylamino)-5-fluoro-2-methoxy-phenyl]-morpholin-4-yl-methanone], the figure is 0.353 nM; as for `COc1cc(Nc2ncc(C(F)(F)F)c(NC3CCC3)n2)c(Cl)cc1C(=O)N1CCOCC1` [Compound 113, [5-Chloro-4-(4-cyclobutylamino-5-trifluoromethyl-pyrimidin-2-ylamino)-2-methoxy-phenyl]-morpholin-4-yl-methanone], 0.326 nM; as for `CCNc1nc(Nc2cc(F)c(C(=O)NC3(CO)CC3)cc2OC)ncc1C(F)(F)F` [Compound 114, 4-(4-Ethylamino-5-trifluoromethyl-pyrimidin-2-ylamino)-2-fluoro-N-(1-hydroxymethyl-cyclopropyl)-5-methoxy-benzamide], 0.559 nM.
Compound `CCNc1nc(Nc2cc(F)c(C(=O)NCC3(O)CC3)cc2OC)ncc1C(F)(F)F` [Compound 115, 4-(4-Ethylamino-5-trifluoromethyl-pyrimidin-2-ylamino)-2-fluoro-N-(1-hydroxy-cyclopropylmethyl)-5-methoxy-benzamide] gave an inhibitory constant (Ki) of 0.31 nM.
The compound `CNc1nc(Nc2cc(C)c(C(=O)NCC(C)(C)O)cc2OC)ncc1C(F)(F)F` [Compound 116, N-(2-Hydroxy-2-methyl-propyl)-5-methoxy-2-methyl-4-(4-methylamino-5-trifluoromethyl-pyrimidin-2-ylamino)-benzamide] displayed an inhibition constant Ki of 1.19 nM.
`CCNc1nc(Nc2cc(OC)c(C(=O)N3CC[C@H](F)C3)cc2Cl)ncc1C#N` [Compound 117, 2-[2-Chloro-4-((S)-3-fluoro-pyrrolidine-1-carbonyl)-5-methoxy-phenylamino]-4-ethylamino-pyrimidine-5-carbonitrile]: the affinity, expressed as Ki, was 12.7 nM.
For `CCNc1nc(Nc2cc(F)c(C(=O)N3CCOCC3)cc2C)ncc1C(F)(F)F` [Compound 118, [4-(4-Ethylamino-5-trifluoromethyl-pyrimidin-2-ylamino)-2-fluoro-5-methyl-phenyl]-morpholin-4-yl-methanone], the Ki stood at 2.76 nM.
For `COc1nc(Nc2cc(C)c(C(=O)N3CCCC3)cc2OCF)ncc1Cl` [Compound 119, [4-(5-Chloro-4-methoxy-pyrimidin-2-ylamino)-5-fluoromethoxy-2-methyl-phenyl]-pyrrolidin-1-yl-methanone] the value was 11.2 nM; for `CNc1nc(Nc2cc(OC)c(C(=O)N(C)C)cc2OCF)ncc1C(F)(F)F` [Compound 120, 5-Fluoromethoxy-2-methoxy-N,N-dimethyl-4-(4-methylamino-5-trifluoromethyl-pyrimidin-2-ylamino)-benzamide], 4.42 nM; for `CCNc1nc(Nc2cc(OCF)c(C(=O)N3CCCC3)cc2F)ncc1C(F)(F)F` [Compound 121, [4-(4-Ethylamino-5-trifluoromethyl-pyrimidin-2-ylamino)-5-fluoro-2-fluoromethoxy-phenyl]-pyrrolidin-1-yl-methanone], 3.43 nM.
For `CNc1nc(Nc2cc(OC)c(C(=O)N3CCOCC3)c(OC)c2F)ncc1C(F)(F)F` [Compound 122, [3-Fluoro-2,6-dimethoxy-4-(4-methylamino-5-trifluoromethyl-pyrimidin-2-ylamino)-phenyl]-morpholin-4-yl-methanone] the value was 2.06 nM.
`[2H]C1([2H])C(Nc2nc(Nc3cc(F)c(C(=O)N4CCOCC4)cc3OC)ncc2C(F)(F)F)C1([2H])[2H]` [Compound 123, (4-(4-(2,3-tetradeutero-cyclopropylamino)-5-(trifluoromethyl)pyrimidin-2-ylamino)-2-fluoro-5-methoxyphenyl)(morpholino)methanone] showed an inhibition constant Ki of 0.31 nM.
As for `CNc1nc(Nc2cc(OC(F)(F)F)c(C(=O)N3CCOCC3)cc2OC)ncc1C(F)(F)F` [Compound 124, [5-Methoxy-4-(4-methylamino-5-trifluoromethyl-pyrimidin-2-ylamino)-2-trifluoromethoxy-phenyl]-morpholin-4-yl-methanone], the Ki was determined as 4.3 nM.
As for `CCNc1nc(Nc2cc(OC)c(C(=O)N3CCOCC3)cc2OC)ncc1C(F)(F)F` [Compound 125, [4-(4-Ethylamino-5-trifluoromethyl-pyrimidin-2-ylamino)-2,5-dimethoxy-phenyl]-morpholin-4-yl-methanone], the figure is 0.577 nM; as for `CNc1nc(Nc2cc(Cl)c(C(=O)N3CCOCC3)cc2C)ncc1C(F)(F)F` [Compound 126, [2-Chloro-5-methyl-4-(4-methylamino-5-trifluoromethyl-pyrimidin-2-ylamino)-phenyl]-morpholin-4-yl-methanone], 6.79 nM; as for `COc1cc(C(=O)N2CCOCC2)c(C)cc1Nc1ncc(C(F)(F)F)c(NC2CCC2)n1` [Compound 129, [4-(4-Cyclobutylamino-5-trifluoromethyl-pyrimidin-2-ylamino)-5-methoxy-2-methyl-phenyl]-morpholin-4-yl-methanone], 0.31 nM.
Consider `CNc1nc(Nc2cc(C)c(C(=O)N3CCOCC3)cc2C)ncc1C(F)(F)F` [Compound 130, [2,5-Dimethyl-4-(4-methylamino-5-trifluoromethyl-pyrimidin-2-ylamino)-phenyl]-morpholin-4-yl-methanone], for which the inhibitory constant (Ki) amounted to 4.74 nM.
